± gives the expanded uncertainty stated by the source.
What was measured:
[1] = for viscosity / mass density: 101.33 kPa, Liquid; for viscosity: Concentric cylinders viscometry; for mass density: Vibrating tube method; for Glass transition temperature: DSC; for Normal melting temperature: Crystal, DTA
[2] = refractive index (Na D-line) (dimensionless); conditions: 101.33 kPa, Liquid, Standard Abbe refractometry

| Structure (SMILES) | viscosity ([1]; 303.15 K) [mPa·s] | mass density ([1]; 303.15 K) [kg/m3] | viscosity ([1]; 313.15 K) [mPa·s] | mass density ([1]; 313.15 K) [kg/m3] | viscosity ([1]; 323.15 K) [mPa·s] | mass density ([1]; 323.15 K) [kg/m3] | viscosity ([1]; 333.15 K) [mPa·s] | mass density ([1]; 333.15 K) [kg/m3] | viscosity ([1]; 343.15 K) [mPa·s] | mass density ([1]; 343.15 K) [kg/m3] | viscosity ([1]; 353.15 K) [mPa·s] | mass density ([1]; 353.15 K) [kg/m3] | Glass transition temperature [1] [°C] | refractive index ([2]; 293.15 K) | refractive index ([2]; 298.15 K) | refractive index ([2]; 303.15 K) | refractive index ([2]; 308.15 K) | refractive index ([2]; 313.15 K) | refractive index ([2]; 318.15 K) | refractive index ([2]; 323.15 K) | also measured |
| --- | --- | --- | --- | --- | --- | --- | --- | --- | --- | --- | --- | --- | --- | --- | --- | --- | --- | --- | --- | --- | --- |
| Cc1ccc(S(=O)(=O)[O-])cc1.N#CCCn1cc[nH+]c1 [1-(2-cyanoethyl)imidazolium 4-methylbenzenesulfonate] | 24795 ± 2900 | 1266.3 ± 30 | 6910.9 ± 670 | 1259.6 ± 30 | 2376.6 ± 190 | 1253 ± 30 | 977.44 ± 67 | 1247.9 ± 30 | 459.63 ± 27 | 1241.2 ± 29 | 239.96 ± 13 | 1233.7 ± 29 | -57.34 ± 2.1 | 1.54509 ± 0.0072 | 1.54414 ± 0.0072 | 1.54297 ± 0.0072 | 1.54177 ± 0.0072 | 1.54051 ± 0.0072 | 1.53926 ± 0.0072 | 1.53798 ± 0.0072 | viscosity ([1]; 363.15 K): 138.89 ± 6.7 mPa·s; mass density ([1]; 363.15 K): 1229.1 ± 29 kg/m3; viscosity ([1]; 373.15 K): 85.89 ± 4 mPa·s; mass density ([1]; 373.15 K): 1221.5 ± 28 kg/m3 |
| CC(=O)[O-].N#CCCn1cc[nH+]c1 [1-(2-cyanoethyl)imidazolium acetate] | 55.28 ± 0.49 | 1120.5 ± 4.1 | 31.57 ± 0.3 | 1113 ± 4.1 | 19.79 ± 0.19 | 1105.2 ± 4.1 | 13.32 ± 0.13 | 1097.7 ± 4.1 | 9.483 ± 0.092 | 1089.8 ± 4.1 | 7.118 ± 0.069 | 1082 ± 4.1 | -78.12 ± 2.1 | 1.48534 ± 0.007 | 1.48368 ± 0.007 | 1.48197 ± 0.007 | 1.48025 ± 0.007 | 1.47851 ± 0.007 | 1.4768 ± 0.007 | 1.47508 ± 0.007 | viscosity ([1]; 293.15 K): 108.22 ± 1.7 mPa·s; mass density ([1]; 293.15 K): 1127.7 ± 4.1 kg/m3; viscosity ([1]; 363.15 K): 5.294 ± 0.052 mPa·s; mass density ([1]; 363.15 K): 1073.2 ± 4.1 kg/m3; viscosity ([1]; 373.15 K): 4.252 ± 0.042 mPa·s; mass density ([1]; 373.15 K): 1062.2 ± 4.1 kg/m3 |
| N#CCCn1cc[nH+]c1.O=S(=O)([O-])O [1-(2-cyanoethyl)imidazolium hydrogen sulfate] | 3102.2 ± 220 | 1423.3 ± 4 | 1397.9 ± 81 | 1417.4 ± 4 | 707.69 ± 33 | 1411.4 ± 4 | 394.22 ± 14 | 1405 ± 4 | 236.85 ± 6.5 | 1398.8 ± 4 | 151.62 ± 3 | 1393 ± 4 | -49.71 ± 2.1 | 1.5022 ± 0.007 | 1.50138 ± 0.007 | 1.50034 ± 0.007 | 1.49927 ± 0.007 | 1.49817 ± 0.007 | 1.49708 ± 0.007 | 1.49599 ± 0.007 | viscosity ([1]; 293.15 K): 7937 ± 700 mPa·s; mass density ([1]; 293.15 K): 1429.4 ± 4 kg/m3; viscosity ([1]; 363.15 K): 102.28 ± 1.4 mPa·s; mass density ([1]; 363.15 K): 1385.9 ± 4 kg/m3; viscosity ([1]; 373.15 K): 72.1 ± 0.55 mPa·s; mass density ([1]; 373.15 K): 1378.6 ± 4 kg/m3 |
| CS(=O)(=O)[O-].N#CCCn1cc[nH+]c1 [1-(2-cyanoethyl)imidazolium methanesulfonate] |  |  |  |  |  |  |  |  |  |  |  |  | -59.40 ± 2.1 | 1.50224 ± 0.007 | 1.50096 ± 0.007 | 1.49962 ± 0.007 | 1.49826 ± 0.007 | 1.49686 ± 0.007 | 1.49547 ± 0.007 | 1.49402 ± 0.007 |  |
| N#CCCn1cc[nH+]c1.O=C([O-])C(F)(F)F [1-(2-cyanoethyl)imidazolium trifluoroacetate] |  |  |  |  |  |  |  |  |  |  |  |  |  |  |  |  |  |  |  |  | Normal melting temperature [1]: -13.48 ± 2 °C |
| N#CCCn1cc[nH+]c1.O=S(=O)([O-])C(F)(F)F [1-(2-cyanoethyl)imidazolium trifluoromethanesulfonate] |  |  |  |  |  |  |  |  |  |  |  |  |  |  |  |  |  |  |  |  | Normal melting temperature [1]: 99.67 ± 2 °C |
| Cn1ccnc1.O=S(=O)(O)O [1-methylimidazolium hydrogen sulfate] |  |  |  |  |  |  |  |  |  |  |  |  | -73.49 ± 2.1 | 1.48955 ± 0.007 | 1.48865 ± 0.007 | 1.48761 ± 0.007 | 1.48655 ± 0.007 | 1.48552 ± 0.007 | 1.48432 ± 0.007 | 1.48311 ± 0.007 | Normal melting temperature [1]: 20.88 ± 2 °C |

From the NIST ThermoML archive (doi:10.1021/acs.jced.6b00450)
